Measured values: patent publication US12565665B2, “Compositions and methods for controlled mRNA translation and stability” (TRUSTEES OF BOSTON UNIVERSITY, priority 2022, dated 2026)

Assays:
UAG-MS2 editing reporter [1] = test: Stop codon editing reporter (mCherry / mNeonGreen) co-transfected with ADAR variants, flow cytometry (median mNeonGreen to mCherry); type: cell-based, human; conditions: for ADAR activity on mCherry-mNeonGreen reporter, no TEV protease: SpyTag / SpyCatcher ADAR variants, flow cytometry
Text: For the reporter system, the inventors used the fluorescent protein-epitope tag tandem fusions of mCherry-FLAG and HA-mNeonGreen as the upstream and downstream coding regions. Without DD editing activity, translation is terminated after mCherry-FLAG. Coexpression with MCP-ADAR2-DD was hypothesized to lead to binding of MCP-DD, stop codon UAG editing to UIG, and expression of mNeonGreen (FIG. 1B).
HEK 293 FT cells were co-transfected with plasmids expressing the reporter containing 2 UAG stop codons in the hairpin and a pcDNA3 construct encoding a fusion protein composed of MCP, ADAR2-DD (E488Q), and TagBFP.
Two days later, fluorescence microscopy images were taken of the cell populations. […] The inventors repeated the experiment and analyzed the samples by flow-cytometry.
The inventors transiently co-transfected HEK 293 FT cells with the mCherry-mNeonGreen reporter, MCP-ADAR2-DD variants containing different configurations of ALFA-tag insertions and NbALFA fusions, and uncaging constructs containing miRFP670 fused to ALFA. Without wishing to be bound by theory, it was hypothesized that the intramolecular interaction would inhibit the ADAR2-DD, but that the ALFA tag on the miRFP670 would displace the lower strength ALFA variants (PE and 78), and perhaps at high enough concentrations displace the intramolecular ALFA, and lead to increased editing.
The inventors then made an ADAR-DD variant with an inserted TEV protease cut site (amino acids ENLYFQG, SEQ ID NO: 286) between the C-terminus of ADAR2-DD and the N-terminus of SpyCatcher (FIG. 5C). The inventors co-transfected HEK 293 FT cells with the reporter construct, the ADAR-DD TEVcs variant, and the TEV protease and 48 hours later analyzed the transfected cells via flow cytometry (FIG. 5D-5E).
Mutated versions were then cloned and co-transfected with an editing reporter in the absence and presence of A-1331852, and absolute background and fold change upon drug addition were determined by flow cytometry (see e.g., FIG. 22d and table 11).

UAG-MS2 editing reporter [2] = test: Stop codon editing reporter (mCherry / mNeonGreen) co-transfected with ADAR variants, fluorescence microscopy / ImageJ quantification; type: cell-based, human; conditions: n=1; for ADAR editing of the reporter construct depending on fusion position of BAD / Bcl-xL: 50 ng reporter and 50 ng ADAR construct, with or without A-1331852

MCP-linker-ADAR2-DDN-SpyTag- ADAR2(E488Q)-DDC-TagBFP [SpyTag variant]
ADAR activity on mCherry-mNeonGreen reporter, no TEV protease (UAG-MS2 editing reporter [1]): activity was seen

MCP-linker-BclxL-linker-ADAR2-DDN-Bad(L)-ADAR2(E488Q)-DDC-TagBFP [BclxL-nDD-BAD-cDD]
ADAR editing of the reporter construct depending on fusion position of BAD / Bcl-xL (UAG-MS2 editing reporter [2]; HEK cells, two days): did not inhibit the enzymatic activity

MCP-linker-ADAR2-DDN-SpyTag- ADAR2(E488Q)-DDC-TEVcs-SpyCatcher-TagBFP [ADAR-DD TEVcs variant]
induced ADAR activity with TEV protease (UAG-MS2 editing reporter [1]; co-transfected TEV protease, flow cytometry 48 hours later): close to that of the non-engineered ADAR2-DD | dependence of ADAR activity on TEV protease (UAG-MS2 editing reporter [1]; co-transfected with or without TEV protease, flow cytometry 48 hours later): only active with the addition of TEV protease

MCP-linker-BAD-ADAR2-DD(E488Q)-Bcl-xL-TagBFP [BAD-DD-BclxL]
ADAR editing of the reporter construct depending on fusion position of BAD / Bcl-xL (UAG-MS2 editing reporter [2]; HEK cells, two days): drug-dependent allostery | fold change with A-1331852, N-terminal BAD fusion system (UAG-MS2 editing reporter [2]; HEK cells, absence or presence of A-1331852, two days): 5.9 × | background in the absence of drug compared with the loop insertion conformation (UAG-MS2 editing reporter [2]; N-terminal BAD, C-terminal Bcl-xL): significantly higher

MCP-linker-BAD-ADAR2-DD(E488Q)-TagBFP [BAD-DD]
ADAR editing of the reporter construct depending on fusion position of BAD / Bcl-xL (UAG-MS2 editing reporter [2]; HEK cells, two days): did not affect ADAR editing of the reporter construct

MCP-linker-ADAR2-DDN-SpyTag- ADAR2(E488Q)-DDC-TagBFP -P2A-T2A-SpyCatcher [T2A-SpyCatcher variant]
ADAR activity on mCherry-mNeonGreen reporter, no TEV protease (UAG-MS2 editing reporter [1]): activity was seen
